{"source": "patent US20200107549A1", "about": "“Enhancement of seed germination and plant growth under conditions of stress with pterostilbene, ellagic acid, nicotinamide riboside, and their combinations” (priority 2018, published 2020)", "system": "rice seeds", "assay": "rice seed germination in artificial paddy", "type": "in vivo, Oryza sativa (Rice)", "conditions": "seeds incubated in 1 micromolar NR; water deprivation paddy, 37 seeds; only 1 seed germinated in that paddy's control", "experimental": "Conditions of “water deprivation” in this specification refers to the administration of less water than required for a seed to germinate typically. In the experiments described below, seeds subjected to a condition of “water deprivation” were given 2 mL of water 3 times a week, as opposed to 5 mL. In the rice experiment, the seeds subjected to “water deprivation” were not given any water after their planting in the artificial paddy. 5 mL of the solutions of the 3 compounds or combinations was placed in a small size weigh boats, along with water as the control. Up to 50 seeds were placed in the weigh boats. Incubation periods ranged from 18-24 hours at room temperature (recorded range of 55-65° F.). The seeds were then either placed in a germination chamber or planted in potting soil, as described below. For the rice plants, an artificial paddy field was built using two plastic bins filled with soil, and filled with water to a depth of 4 inches. A divider comprising of sticks was placed to delineate the experimental conditions comparing water soaked seeds or NR soaked seeds. In one paddy, water was replenished until germination was observed; the other received no added water. The bins were left outside for a total of 6 weeks; the daily temperatures ranged between 50 F to 95 F, and no rainfall was recorded during the experimental period. […]", "data": [{"compound": "NC(=O)c1ccc[n+]([C@@H]2O[C@H](CO)[C@@H](O)[C@H]2O)c1", "note": "[NR, Nicotinamide riboside]", "values": [{"measurement": "seeds germinated", "value": 32, "unit": "%"}]}]}
